Our source for the T/C values is PubChem BioAssay AID330 (DTP/NCI, 2004).

Several values for one entry are separate records, joined by “and”; a condition that tells them apart may be missing. Identical values can stand only once. Inconclusive results and toxic doses are left out.

The subject of the experiment is P388 leukemia ip, CD2F1 mice, survival T/C. In words: NCI In Vivo Anticancer Drug Screen. Data for tumor model P388 Leukemia (intraperitoneal) in CD2F1 (CDF1) mice. The conditions noted are these: endpoint: median survival time, higher = longer survival. An outline of the steps:
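Mice carrying the transplanted tumor received test compound or vehicle. Survival was recorded in each group, and the value is the treated-group measurement divided by that of the vehicle-treated control group.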

Setting [1] is: dose: 12.5 mg/kg/injection, schedule: Q01DX009 (ip), vehicle: Klucel (hydroxypropylcellulose) (HPC).
Setting [2] is: dose: 25.0 mg/kg/injection, schedule: Q01DX009 (ip), vehicle: Klucel (hydroxypropylcellulose) (HPC).
Where [3] appears, read: dose: 100.0 mg/kg/injection, schedule: Q01DX009 (ip), vehicle: Klucel (hydroxypropylcellulose) (HPC).
The mark [4] stands for this setting: dose: 60.0 mg/kg/injection, schedule: Q01DX005 (ip), vehicle: saline with Tween-80.
[5] abbreviates: dose: 120.0 mg/kg/injection, schedule: Q01DX005 (ip), vehicle: saline with Tween-80.
The mark [6] stands for this setting: dose: 240.0 mg/kg/injection, schedule: Q01DX005 (ip), vehicle: saline with Tween-80.
[7] abbreviates: dose: 50.0 mg/kg/injection, schedule: Q01DX009 (ip), vehicle: saline.
[8] abbreviates: dose: 100.0 mg/kg/injection, schedule: Q01DX009 (ip), vehicle: saline.
The mark [9] stands for this setting: dose: 100.0 mg/kg/injection, schedule: Q01DX009 (ip), vehicle: saline with Tween-80.
Setting [10] is: dose: 100.0 mg/kg/injection, schedule: Q04DX003 (ip), vehicle: saline with Tween-80.
The mark [11] stands for this setting: dose: 200.0 mg/kg/injection, schedule: Q01DX009 (ip), vehicle: saline with Tween-80.
The mark [12] stands for this setting: dose: 200.0 mg/kg/injection, schedule: Q04DX003 (ip), vehicle: saline with Tween-80.
Setting [13] is: dose: 50.0 mg/kg/injection, schedule: Q01DX005 (ip), vehicle: Klucel (hydroxypropylcellulose) (HPC).
Setting [14] is: dose: 100.0 mg/kg/injection, schedule: Q01DX005 (ip), vehicle: Klucel (hydroxypropylcellulose) (HPC).
[15] abbreviates: dose: 50.0 mg/kg/injection, schedule: Q01DX009 (ip), vehicle: saline with Tween-80.
[16] abbreviates: dose: 200.0 mg/kg/injection, schedule: Q01DX005 (ip), vehicle: Klucel (hydroxypropylcellulose) (HPC).
Setting [17] is: dose: 6.25 mg/kg/injection, schedule: Q01DX005 (ip), vehicle: saline with Tween-80.
Where [18] appears, read: dose: 12.5 mg/kg/injection, schedule: Q01DX005 (ip), vehicle: saline with Tween-80.
The mark [19] stands for this setting: dose: 25.0 mg/kg/injection, schedule: Q01DX005 (ip), vehicle: saline with Tween-80.
[20] abbreviates: dose: 50.0 mg/kg/injection, schedule: Q01DX005 (ip), vehicle: saline with Tween-80.
[21] abbreviates: dose: 100.0 mg/kg/injection, schedule: Q01DX005 (ip), vehicle: saline with Tween-80.
Setting [22] is: dose: 200.0 mg/kg/injection, schedule: Q01DX005 (ip), vehicle: saline with Tween-80.
Where [23] appears, read: dose: 50.0 mg/kg/injection, schedule: Q04DX003 (ip), vehicle: saline with Tween-80.

`CCSc1nc2ccc(N=Cc3ccccc3O)cc2s1`: the T/C under setting [1] was 99 % of control and 88 % of control; the T/C under setting [2] is 101 % of control and 93 % of control; the T/C under setting [3] is 106 % of control and 218 % of control and 91 % of control.

Take `COC(=O)c1ccc(N=NN(C)CO)cc1`: the T/C reads like this: under setting [4], 97 % of control; under setting [5], 108 % of control; under setting [6], 115 % of control.

Consider `CCCCC/C=N/N(C)C=O`, for which the T/C was 103 % of control (dose: 100.0 mg/kg/injection, schedule: Q04DX002 (ip), vehicle: saline); 103 % of control (dose: 200.0 mg/kg/injection, schedule: Q04DX002 (ip), vehicle: saline); 100 % of control (dose: 400.0 mg/kg/injection, schedule: Q04DX002 (ip), vehicle: saline).

As to `CC(C)c1cc2c(cc1O)C(O)C1(O)CCCC(C)(C)[C@H]1CC2` (stereo partly drawn), the T/C was 104 % of control (dose: 7.5 mg/kg/injection, schedule: Q01DX005 (ip), vehicle: other); 100 % of control (dose: 15.0 mg/kg/injection, schedule: Q01DX005 (ip), vehicle: other); 86 % of control (dose: 30.0 mg/kg/injection, schedule: Q01DX005 (ip), vehicle: other); 94 % of control (dose: 60.0 mg/kg/injection, schedule: Q01DX005 (ip), vehicle: other).

Regarding `COc1ccc(C2CC(=O)NC(NC#N)=N2)c(O)c1` (stereo not drawn), the T/C was 104 % of control under setting [7]; 102 % of control under setting [8]; 100 % of control (dose: 200.0 mg/kg/injection, schedule: Q01DX009 (ip), vehicle: saline).

Take `Cc1ccc2ccccc2c1N(CC(=O)O)S(=O)(=O)c1ccccc1`: the T/C runs as follows: under setting [9], 100 % of control; under setting [10], 100 % of control; under setting [11], 110 % of control; under setting [12], 100 % of control; (dose: 400.0 mg/kg/injection, schedule: Q01DX009 (ip), vehicle: saline with Tween-80) 120 % of control; (dose: 400.0 mg/kg/injection, schedule: Q04DX003 (ip), vehicle: saline with Tween-80) 109 % of control.

Consider `CN(C)Cc1ccc2ccccc2c1O`, for which the T/C runs as follows: under setting [7], 104 % of control; under setting [8], 109 % of control.

On to `Clc1ccc(C2=CSC3=NCCN23)cc1`, for which the T/C runs as follows: under setting [1], 111 % of control; under setting [2], 110 % of control.

For the molecule `CC1(C)CCCC2=C1C(=O)N(SC(Cl)(Cl)Cl)C2=O`, the T/C was 102 % of control (dose: 12.5 mg/kg/injection, schedule: Q01DX005 (ip), vehicle: Klucel (hydroxypropylcellulose) (HPC)); 121 % of control (dose: 25.0 mg/kg/injection, schedule: Q01DX005 (ip), vehicle: Klucel (hydroxypropylcellulose) (HPC)); 121 % of control and 123 % of control under setting [13]; 122 % of control under setting [14].

Regarding `Cc1ccc(S(=O)(=O)N/N=C2/C(=O)NC(=O)C(=O)C2c2nc3ccccc3s2)cc1` (stereo not drawn), the T/C under setting [4] is 98 % of control, the T/C under setting [5] was 92 % of control and the T/C under setting [6] is 100 % of control.

For `CCOC(=O)C(C(=O)c1ccccc1)C(=O)C(C)(C)C` (stereo not drawn), the T/C under setting [15] was 100 % of control, the T/C under setting [9] is 91 % of control and the T/C under setting [11] is 95 % of control.

For `c1cc[c]([Sn]2([c]3ccccc3)[O]CCNCC[O]2)cc1`, the T/C (dose: 25.0 mg/kg/injection, schedule: Q01DX005 (ip), vehicle: saline) was 150 % of control; the T/C (dose: 50.0 mg/kg/injection, schedule: Q01DX005 (ip), vehicle: saline) is 153 % of control; the T/C (dose: 100.0 mg/kg/injection, schedule: Q01DX005 (ip), vehicle: saline) is 155 % of control and 160 % of control.

With `N#Cc1cn(Cc2ccccc2)c2ccccc2c1=O`, the T/C is 100 % of control under setting [13], 103 % of control under setting [14] and 103 % of control under setting [16].

For the molecule `COc1ccc(C2OC3=C(Nc4cc(C)c(C)cc4N3)C2=O)cc1` (stereo not drawn), the T/C was 89 % of control (dose: 60.0 mg/kg/injection, schedule: Q01DX005 (ip), vehicle: Klucel (hydroxypropylcellulose) (HPC)) and 89 % of control (dose: 120.0 mg/kg/injection, schedule: Q01DX005 (ip), vehicle: Klucel (hydroxypropylcellulose) (HPC)).

Consider `O=C1CN(c2ccccc2)CC(=O)N2Cc3ccccc3CN12`, for which the T/C was 96 % of control under setting [17], 100 % of control under setting [18] and 98 % of control under setting [19].

With `CNC(=O)OCc1c(COC(=O)NC)c(C(F)(F)F)n2c1CCC2`, the T/C by setting is: (dose: 50.0 mg/kg/injection, schedule: Q01DX009 (ip), vehicle: Klucel (hydroxypropylcellulose) (HPC)) 117 % of control; under setting [3], 116 % of control.

Turning to `O=C1CC(c2ccccc2)C(=O)N1CN1CCOCC1` (stereo not drawn), the T/C runs as follows: under setting [13], 110 % of control; under setting [14], 97 % of control; under setting [16], 97 % of control.

In the case of `C/C(=N\N=C(N)N)c1ccc(-c2ccccc2)cc1`, the T/C runs as follows: (dose: 25.0 mg/kg/injection, schedule: Q04DX002 (ip), vehicle: saline with Tween-80) 111 % of control; (dose: 50.0 mg/kg/injection, schedule: Q04DX002 (ip), vehicle: saline with Tween-80) 109 % of control.

For `O=[N+]([O-])c1cccc(/C=C/S(=O)(=O)Cc2ccccc2)c1`, the T/C under setting [20] is 101 % of control, the T/C under setting [21] is 100 % of control and the T/C under setting [22] is 92 % of control.

Take `Nc1ncnc(N)c1N=O`: the T/C by setting is: under setting [23], 100 % of control; under setting [10], 104 % of control; under setting [12], 100 % of control.

For the molecule `ClCSc1ccccc1C1=NCCCN1`, the T/C is 107 % of control (dose: 0.78 mg/kg/injection, schedule: Q01DX005 (ip), vehicle: saline); 107 % of control (dose: 1.56 mg/kg/injection, schedule: Q01DX005 (ip), vehicle: saline); 102 % of control (dose: 3.12 mg/kg/injection, schedule: Q01DX005 (ip), vehicle: saline).

As to `CCCn1c2c(c3ccccc3c1=O)C(=O)c1ccccc1-2`, the T/C under setting [17] is 95 % of control, the T/C under setting [18] is 88 % of control and the T/C under setting [19] was 93 % of control.

Regarding `CSC(N)=Nc1cccc2c1CCCC2`, the T/C (dose: 25.0 mg/kg/injection, schedule: Q01DX009 (ip), vehicle: saline) was 100 % of control; the T/C under setting [7] is 100 % of control; the T/C under setting [8] was 95 % of control.

Turning to `O=C1C(=O)N(c2ccccc2)N=C1N=Nc1ccccc1`, the T/C by setting is: under setting [20], 110 % of control and 115 % of control; under setting [21], 108 % of control and 114 % of control; under setting [22], 117 % of control and 120 % of control; (dose: 400.0 mg/kg/injection, schedule: Q01DX005 (ip), vehicle: saline with Tween-80) 109 % of control.

`O=C(Nc1ccc(Cl)cc1)Nc1nnc(Cc2ccc(Cl)cc2)o1`: the T/C was 99 % of control under setting [20] and 87 % of control under setting [21].

Regarding `C=C(Cl)C(=NC(C)(C)C)Nc1ccccc1`, the T/C was 102 % of control under setting [13] and 92 % of control under setting [14].

In the case of `O=C([O][Hg][CH2]C1COC([CH2][Hg][O]C(=O)c2ccccc2)CO1)c1ccccc1` (stereo not drawn), the T/C is 120 % of control (dose: 25.0 mg/kg/injection, schedule: Q01DX009 (ip), vehicle: saline with Tween-80); 104 % of control (dose: 25.0 mg/kg/injection, schedule: Q04DX003 (ip), vehicle: saline with Tween-80); 120 % of control under setting [15]; 90 % of control under setting [23]; 95 % of control under setting [10].

As for `COC(=O)N1C=Cc2ccccc2C1(C#N)C(=S)SC` (stereo not drawn), the T/C is, setting by setting: under setting [20], 102 % of control; under setting [21], 93 % of control; under setting [22], 91 % of control.

For the molecule `O=C1CSC(c2ccccc2F)N1c1nccs1` (stereo not drawn), the T/C runs as follows: under setting [13], 100 % of control; under setting [14], 103 % of control; under setting [16], 109 % of control.
